Test results published in US8461150B2, “Chalcone linked pyrrolo[2,1-c][1, 4]benzodiazepine hybrids as potential anticancer agents and process for the preparation thereof” (Council of Scientific & Industrial Research, priority 2008, dated 2013).

Assays:
human tumour cell lines = assay: In vitro cytotoxicity, mean graph midpoints (MG_MID) over human tumour cell lines; assay type: cell-based; conditions: for Log10LC50 mean graph midpoint (MG_MID): 50% cell death; for Log10LC50 mean graph midpoint (MG_MID) / Log10GI50 mean graph midpoint (MG_MID) / Log10TGI mean graph midpoint (MG_MID): human tumour cell lines, 48 h exposure, SRB; for cytotoxicity against some cancer cell lines: in words, refers to Table 3; for Log10TGI mean graph midpoint (MG_MID): total cell growth inhibition
Experimental: (§1) Biological Activity: The in vitro cell line studies were carried out at the National Cancer Institute, Maryland, USA.
(§2) 6b, 6c, 6g, 10a and 10b were evaluated for in vitro anticancer activity against sixty human tumour cells derived from nine cancer types (leukemia, non-small-cell lung, colon, CNS, melanoma, ovarian, prostate, renal and breast cancer) as shown in (Table 1 and 2). For the compound, dose response curves for each cell line were measured at a minimum of five concentrations at 10 fold dilutions. A protocol of 48 h continuous drug exposure was used and a sulforhodamine B (SRB) protein assay was used to estimate cell viability or growth. The concentration causing 50% cell growth inhibition (GI50), total cell growth inhibition (TGI 0% growth) and 50% cell death (LC50, −50% growth) compared with the control was calculated.

786-0 (Renal) = assay: Cytotoxicity in selected cancer cell lines (SRB, 48 h); assay type: cell-based, human
Experimental: as §1, §2
(§3) Each cancer type represents the average of six to nine different cancer cell lines. In vitro evaluation of cytotoxic activity. The compound 6b, 6c, 6g 10a and 10b were evaluated for in vitro anticancer activity against nine human tumour cells derived from six cancer types (leukemia, colon, prostate, melanoma, ovarian, lung, cervix and breast cancer) as shown in Table 3. […] Compounds 6b, 6c, 6g, 10a and 10b have been evaluated for their in vitro cytotoxicity in selected human cancer cell lines of colon (Colo205), lung (NCI-H522, NCI-H226), colon (colo-205), prostate (DU145, PC3), ovarian (IGROV1, HT1080), and breast (MDA-MB-435, Zr-75-1), melanoma (LOXMIVI, VACC-62, SK-MEL-5) origin. A protocol of 48 h continuous drug exposure has been used and an […] has been used to estimate cell viability or growth. The results are expressed as percent of cell growth determined relative to that of untreated control cells

A498 (Renal) = assay: as above; assay type: cell-based, human
Experimental: as §1, §2, §3

ACHN (Renal) = assay: as above; assay type: cell-based, human
Experimental: as §1, §2, §3

CAKI-1 (Renal) = assay: as above; assay type: cell-based, human
Experimental: as §1, §2, §3

CCRF-CEM (Leukemia) = assay: as above; assay type: cell-based, human
Experimental: as §1, §2, §3

HCT-116 (Colon) = assay: as above; assay type: cell-based, human
Experimental: as §1, §2, §3

HCT-15 (Colon) = assay: as above; assay type: cell-based, human
Experimental: as §1, §2, §3

HL-60(TB) (Leukemia) = assay: as above; assay type: cell-based, human
Experimental: as §1, §2, §3

LOX IMVI (Melanoma) = assay: as above; assay type: cell-based, human
Experimental: as §1, §2, §3

M14 (Melanoma) = assay: as above; assay type: cell-based, human
Experimental: as §1, §2, §3

MALME-3M (Melanoma) = assay: as above; assay type: cell-based, human
Experimental: as §1, §2, §3

MDA-MB-231/ATCC (Breast) = assay: as above; assay type: cell-based, human
Experimental: as §1, §2, §3

[1] = system: NCI-H226 (Non-small cell lung); assay: as above; assay type: cell-based, human
Experimental: as §1, §2, §3

[2] = system: NCI-H23 (Non-small cell lung); assay: as above; assay type: cell-based, human
Experimental: as §1, §2, §3

[3] = system: NCI-H522 (Non-small cell lung); assay: as above; assay type: cell-based, human
Experimental: as §1, §2, §3

NCI/ADR-RES (Breast) = assay: as above; assay type: cell-based, human
Experimental: as §1, §2, §3

OVCAR-3 (Ovarian) = assay: as above; assay type: cell-based, human
Experimental: as §1, §2, §3

RPMI-8226 (Leukemia) = assay: as above; assay type: cell-based, human
Experimental: as §1, §2, §3

SF-539 (CNS) = assay: as above; assay type: cell-based, human
Experimental: as §1, §2, §3

SK-MEL-5 (Melanoma) = assay: as above; assay type: cell-based, human
Experimental: as §1, §2, §3

SW-620 (Colon) = assay: as above; assay type: cell-based, human
Experimental: as §1, §2, §3

TK-10 (Renal) = assay: as above; assay type: cell-based, human
Experimental: as §1, §2, §3

U251 (CNS) = assay: as above; assay type: cell-based, human
Experimental: as §1, §2, §3

UACC-257 (Melanoma) = assay: as above; assay type: cell-based, human
Experimental: as §1, §2, §3

UACC-62 (Melanoma) = assay: as above; assay type: cell-based, human
Experimental: as §1, §2, §3

UO-31 (Renal) = assay: as above; assay type: cell-based, human
Experimental: as §1, §2, §3

[4] = system: duplex-form calf thymus DNA (CT-DNA); assay: Thermal denaturation studies with calf thymus DNA; assay type: binding; conditions: [PBD]:[DNA] molar ratio 1:5, CT-DNA 100 μM, ligand 20 μM, pH 7.00; for ΔTμ (° C.) after incubation at 37 °C. for 0 h: 0 h incubation; for ΔTμ (° C.) after incubation at 37 °C. for 18 h: 18 h incubation
Experimental: These compounds have also been subjected to thermal denaturation studies with duplex-form calf thymus DNA (CT-DNA) using an modification of a reported procedure. Working solutions in aqueous buffer (10 mM NaH2PO4/Na2HPO4, 1 mM Na2EDTA, pH 7.00+0.01) containing CT-DNA (100 μm in phosphate) and the PBD (20 μm) have been prepared by addition of concentrated PBD solutions in DMSO to obtain a fixed [PBD]/[DNA] molar ratio of 1:5. The DNA-PBD solutions have been incubated at 37° C. for 0 and 18 h prior to analysis. Samples have been monitored at 260 nm using a Beckman DU-800 spectrophotometer fitted with high performance temperature controller, and heated at 1° C. min^−1 in the 40-110° C. range. DNA helix→coil transition temperatures (Tm) have been obtained from the maxima in the d(A260)/d T derivative plots. Drug-induced alterations in DNA melting behavior are given by: ΔTm=Tm(DNA+PBD)−Tm(DNA alone), where the Tm value for the PBD-free CT-DNA is 68.5±0.01.

SMILES | Log10LC50 mean graph midpoint (MG_MID) (human tumour cell lines) | Log10GI50 mean graph midpoint (MG_MID) (human tumour cell lines) | cytotoxicity against some cancer cell lines (human tumour cell lines) | Log10TGI mean graph midpoint (MG_MID) (human tumour cell lines) | GI50 (786-0 (Renal)) [µM] | GI50 (A498 (Renal)) [µM] | GI50 (ACHN (Renal)) [µM] | GI50 (CAKI-1 (Renal)) [µM] | GI50 (CCRF-CEM (Leukemia)) [µM] | GI50 (HCT-116 (Colon)) [µM] | GI50 (HCT-15 (Colon)) [µM] | GI50 (HL-60(TB) (Leukemia)) [µM] | GI50 (LOX IMVI (Melanoma)) [µM] | GI50 (M14 (Melanoma)) [µM] | GI50 (MALME-3M (Melanoma)) [µM] | GI50 (MDA-MB-231/ATCC (Breast)) [µM] | GI50 [1] [µM] | GI50 [2] [µM] | GI50 [3] [µM] | GI50 (NCI/ADR-RES (Breast)) [µM] | other results
COc1cc(C=CC(=O)c2ccc(F)cc2)ccc1OCCCCOc1cc2c(cc1OC)C(=O)N1CCC[C@H]1C=N2 [6b, 7-Methoxy-8-{4-[1-(4-fluorophenyl)-3-(4-hydroxy-3-methoxyphenyl)-2-propen-1-one]butyl}-oxy-(11aS)-1,2,3,11a-5H-pyrrolo[2,1-c][1,4]benzodiazepin-5-one] | −4.59 | −6.83 | promising cytotoxicity | −6.81 | 19.8 | 26.1 | 43.4 | 13.6 | 16 | 11.2 | 28.5 | 29 | 10 | 10.1 | 18.2 | 11.6 | 14 | 19.2 | 11.5 | 13.8 | GI50 (OVCAR-3 (Ovarian)): 37 µM; GI50 (RPMI-8226 (Leukemia)): 13 µM; GI50 (SF-539 (CNS)): 29.6 µM; GI50 (SK-MEL-5 (Melanoma)): 10 µM; GI50 (SW-620 (Colon)): 13.5 µM; GI50 (TK-10 (Renal)): 16.6 µM; GI50 (U251 (CNS)): 14.8 µM; GI50 (UACC-257 (Melanoma)): 70.9 µM; GI50 (UACC-62 (Melanoma)): 10 µM; GI50 (UO-31 (Renal)): 19.2 µM; ΔTμ (° C.) after incubation at 37 °C. for 0 h [4]: 2.2 °C; ΔTμ (° C.) after incubation at 37 °C. for 18 h [4]: 2.6 °C
COc1cc(C=CC(=O)c2ccc(F)cc2)ccc1OCCCCCOc1cc2c(cc1OC)C(=O)N1CCC[C@H]1C=N2 [6c, 7-Methoxy-8-{5-[1-(4-fluorophenyl)-3-(4-hydroxy-3-methoxyphenyl)-2-propen-1-one]pentyl}-oxy-(11aS)-1,2,3,11a-5H-pyrrolo[2,1-c][1,4]benzodiazepin-5-one] | −4.61 | −6.86 | promising cytotoxicity | −6.79 | 18.4 | 20.1 | 42 | 15.8 | 25.1 | 21 | 29.3 | 28.2 | 18.2 | 14.5 | 24.2 | 19.9 | 16.5 | 15.8 | 65.3 | 17.4 | GI50 (OVCAR-3 (Ovarian)): 34.3 µM; GI50 (RPMI-8226 (Leukemia)): 16.4 µM; GI50 (SF-539 (CNS)): 30.3 µM; GI50 (SK-MEL-5 (Melanoma)): 20.9 µM; GI50 (SW-620 (Colon)): 18.8 µM; GI50 (TK-10 (Renal)): 38.2 µM; GI50 (U251 (CNS)): 15.2 µM; GI50 (UACC-257 (Melanoma)): 22.9 µM; GI50 (UACC-62 (Melanoma)): 15.1 µM; GI50 (UO-31 (Renal)): 21.1 µM; ΔTμ (° C.) after incubation at 37 °C. for 0 h [4]: 2.4 °C; ΔTμ (° C.) after incubation at 37 °C. for 18 h [4]: 2.9 °C
COc1cc(C=CC(=O)c2c(C)nc3ccccc3c2C)ccc1OCCCOc1cc2c(cc1OC)C(=O)N1CCC[C@H]1C=N2 [10a, 7-Methoxy-8-{3-[3-(4-hydroxy-3-methoxyphenyl)-1-(2,4-dimethyl-3-quinolyl)-2-propen-1-one]propyl}-oxy-(11aS)-1,2,3,11a-5H-pyrrolo[2,1-c][1,4]benzodiazepin-5-one] | −4.43 | −6.94 | promising cytotoxicity | −6.90 | 17.3 | 20.1 | 32 | 15.8 | 12.5 | 21 | 29.7 | 25.2 | 18.2 | 14.5 | 24.2 | 19.9 | 10.8 | 24.1 | 10.8 | 17.6 | GI50 (OVCAR-3 (Ovarian)): 24.9 µM; GI50 (RPMI-8226 (Leukemia)): 15 µM; GI50 (SF-539 (CNS)): 30.3 µM; GI50 (SK-MEL-5 (Melanoma)): 20.9 µM; GI50 (SW-620 (Colon)): 26.6 µM; GI50 (TK-10 (Renal)): 33.2 µM; GI50 (U251 (CNS)): 19.8 µM; GI50 (UACC-257 (Melanoma)): 22.9 µM; GI50 (UACC-62 (Melanoma)): 15.1 µM; GI50 (UO-31 (Renal)): 21.6 µM; ΔTμ (° C.) after incubation at 37 °C. for 0 h [4]: 4.0 °C; ΔTμ (° C.) after incubation at 37 °C. for 18 h [4]: 4.6 °C
COc1cc(C=CC(=O)c2c(C)nc3ccccc3c2C)ccc1OCCCCOc1cc2c(cc1OC)C(=O)N1CCC[C@H]1C=N2 [10b, 7-Methoxy-8-{4-[3-(4-hydroxy-3-methoxyphenyl)-1-(2,4-dimethyl-3-quinolyl)-2-propen-1-one]butyl}-oxy-(11aS)-1,2,3,11a-5H-pyrrolo[2,1-c][1,4]benzodiazepin-5-one] | −4.46 | −6.86 | promising cytotoxicity | −6.94 | 14.9 | 19.5 | 36.1 | 12.9 | 13.4 | 14.6 | 18.4 | 24.5 | 15 | 18.8 | 36.2 | 14.2 | 10.1 | 19.5 | 9 | 16.9 | GI50 (OVCAR-3 (Ovarian)): 26.3 µM; GI50 (RPMI-8226 (Leukemia)): 13.8 µM; GI50 (SF-539 (CNS)): 33.7 µM; GI50 (SK-MEL-5 (Melanoma)): 23.3 µM; GI50 (SW-620 (Colon)): 25.9 µM; GI50 (TK-10 (Renal)): 31.4 µM; GI50 (U251 (CNS)): 15.7 µM; GI50 (UACC-257 (Melanoma)): 15.9 µM; GI50 (UACC-62 (Melanoma)): 22.5 µM; GI50 (UO-31 (Renal)): 15.2 µM; ΔTμ (° C.) after incubation at 37 °C. for 0 h [4]: 4.3 °C; ΔTμ (° C.) after incubation at 37 °C. for 18 h [4]: 4.9 °C
